Assay results reported in patent publication US6916802B2, “Amino ceramide-like compounds and therapeutic methods of use” (Genzyme Corporation, priority 2002, dated 2005).
Where “and” joins values, the source holds several entries; their conditions need not be identical. Equal values may be shown once. Marks after values point to notes of the source that are not given here.

Tests used:
[1] = tested on: MCF-7 breast carcinoma cells; assay: Tumor cell growth in vitro (sulforhodamine B), MCF-7; assay type: cell-based, human; conditions: rounded off to one digit, read-out: Inhibition of tumor cell growth in vitro, IC50
Outline: (§1)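 Cells in RPMI 1640 + 5% FBS, plated 1000/well (H-460, 9L) or 2000/well (MCF-7); compounds added day 1 from 2 mM BSA stocks diluted 500-fold in medium. Growth read by sulforhodamine B staining, A520, at day 5 (H-460, 9L) or day 6 (MCF-7), as percent of control.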

MDCK cells [2] = assay: Lipid changes in MDCK cells (GlcCer, ceramide, diacylglycerol); assay type: cell-based, canine; conditions: for Ceramide / Diglyceride: diglyceride kinase method; for level of GlcCer, estimated visually (TLC): 24 h incubation
Description: TLC of the cell lipids was run with C-M-W 24:7:1 (solvent D) or 60:35:8 (solvent E).
Ceramide accumulation was similar for both stereoisomers (data not shown). An unexpected finding is that noticeable ceramide accumulation appeared only at inhibitor concentrations that were more than enough to bring GlcCer levels to a very low point (e.g., at 2 or 4 μM). The changes in ceramide concentration were quantitated in a separate experiment by the diglyceride kinase method, which allows one to also determine diacylglycerol (DAG) concentration (Preiss, J. E. et al., “Quantitative Measurement of SN-1,2-Diacylglycerols Present in Platelets, Hepatocytes, and Ras- and Sis-Transformed Normal Rat Kidney Cells,” J. Biol. Chem., 261:8597-8600 (1986)). The results (Table 5) are similar to the visually estimated ones: at 0.4 μM BML-129 or -130 there was little effect on ceramide content but at 4 μM inhibitor, a substantial increase was observed. (While the duplicate protein contents per incubation dish were somewhat erratic in the high-dose dishes, in which growth was slow, the changes were nevertheless large and clear.) Accumulation of ceramide had previously been observed with PDMP, at a somewhat higher level of inhibitor in the medium (Shayman, J. A. et al., “Modulation of Renal Epithelial Cell Growth by Glucosylceramide: Association with Protein Kinase C, Sphingosine, and Diacylglyceride,” J. Biol. Chem., 266:22968-22974 (1991)). From the data for cellular protein per incubation dish, it can be seen that there was no growth inhibition at the 0.4 μM level with either compound but substantial inhibition at the 4 μM level, especially with the glucosyltransferase inhibitor, BML-130. This finding is similar to the ones made in longer incubations with human cancer cells.

Sphingomyelin synthase = Sphingomyelin synthase of MDCK homogenate; assay type: biochemical, canine
Description: Sphingomyelin synthase was evaluated with 44 μM [^14C]decanoyl sphingosine (10^5 cpm) dispersed with 136 μM dioleoyllecithin as in the ceramide synthase assay, and 5 mM EDTA and 50 mM Hepes-Na^+ pH 7.5, in a total volume of 0.5 ml. MDCK homogenate was centrifuged at 600×g briefly, then at 100,000×g for 1 h, and the pellet was suspended in water and sonicated with a dipping probe. A portion of this suspension containing 300 μg of protein was used. Incubation was at 37° C. for 30 min, after which the lipids were treated as above, using C-M-W 60:35:8 for the isolation of the labeled decanoyl SM.

MDCK cells [3] = assay: Lipid changes in MDCK cells (GlcCer, ceramide, diacylglycerol); assay type: cell-based, canine; conditions: 24 h
[4] = tested on: 9L brain gliosarcoma cells; assay: Tumor cell growth in vitro (sulforhodamine B), 9L; assay type: cell-based; conditions: for IC50: 9L, rounded off to one digit, read-out: Inhibition of tumor cell growth in vitro, IC50; for growth, % of control growth: 9L cells
Outline: as §1

[5] = tested on: UMSCC-10A head and neck squamous carcinoma cells; assay: Tumor cell growth in vitro (sulforhodamine B), UMSCC-10A; assay type: cell-based, human; conditions: rounded off to one digit, read-out: Inhibition of tumor cell growth in vitro, IC50
Description: Growth of cell lines. Comparisons of different inhibitors with regard to suppression of human cancer cell growth were made by the University of Michigan Cancer Center in vitro Drug Evaluation Core Laboratory. MCF-7 breast carcinoma cells, HT-29 colon adenocarcinoma cells, H-460 lung large cell carcinoma cells, and 9L brain gliosarcoma cells were grown in RPMI 1640 medium with 5% fetal bovine serum, 2 mM glutamine, 50 units/ml of penicillin, […] of streptomycin, and 0.1 mg/ml of neomycin. UMSCC-10A head and neck squamous carcinoma cells were grown in minimal essential medium with Earle salts and the same supplements. Medium components were from Sigma Chemical Co. Cells were plated in 96-well microtiter plates (1000 cells/well for H-460 and 9L cells, and 2000 cells/well for the other lines), and the test compounds were added 1 day later. The stock inhibitor solutions, 2 mM in 2 mM BSA, were diluted with different amounts of additional 2 mM BSA, then each solution was diluted 500-fold with growth medium to obtain the final concentrations indicated in the Figures and Tables.
Five days after plating the H-460 and 9L cells, or 6 days for the other lines, cell growth was evaluated by staining the adhering cells with sulforhodamine B and measuring the absorbance at 520 nm (Skehan, P. et al., “New Colorimetric Cytotoxicity Assay for Anticancer-Drug Screening,” J. Natl. Cancer Inst., 82:1107-1112 (1990)). The absorbance of the treated cultures is reported as percent of that of control cultures, to provide an estimate of the fraction of the cells that survived, or of inhibition of growth rate.

Ceramide synthase = Ceramide synthase of MDCK homogenate; assay type: biochemical, canine
Description: Ceramide synthase was assayed with 1 μM [3-^3H]sphingosine (70,000 cpm, repurified by column chromatography), 0.2 mM stearoyl-CoA, 0.5 mM dithiothreitol, and ˜300 μg of MDCK homogenate protein in 25 mM phosphate-K^+ buffer, pH 7.4, in a total volume of 0.2 ml. The incubation (for 30 min) and TLC were carried out as above and the ceramide band was counted.

[6] = tested on: H-460 lung large cell carcinoma cells; assay: Tumor cell growth in vitro (sulforhodamine B), H-460; assay type: cell-based, human; conditions: rounded off to one digit, read-out: Inhibition of tumor cell growth in vitro, IC50
Outline: as §1

Row | Structure (SMILES) | IC50 [1] [µM] | Ceramide (MDCK cells [2]; 0.4 μM) | Diglyceride (MDCK cells [2]; 0.4 μM) | Ceramide (MDCK cells [2]; 4 μM) | Diglyceride (MDCK cells [2]; 4 μM) | Sphingomyelinase Synthase, enzyme activity (% of control) (Sphingomyelin synthase; 5 μM) | Sphingomyelinase Synthase, enzyme activity (% of control) (Sphingomyelin synthase; 50 μM) | inhibition of sphingomyelin synthase (Sphingomyelin synthase; 50 μM) [%] | IC50 [4] [µM] | IC50 [5] [µM] | Ceramide Synthase, enzyme activity (% of control) (Ceramide synthase; 5 μM) | Ceramide Synthase, enzyme activity (% of control) (Ceramide synthase; 50 μM) | IC50 [6] [µM] | also measured
1 | CCCCCCCCCCCCCCCC(=O)NC(CN1CCCC1)C(O)c1ccccc1 (racemic) [BML-129] | 3 | 0.99 nmol/mg protein and 1.29 nmol/mg protein | 5.13 nmol/mg protein and 5.51 nmol/mg protein | 3.57 nmol/mg protein and 3.78 nmol/mg protein | 9.30 nmol/mg protein and 9.68 nmol/mg protein | 84 ± 27 % of control | 46 ± 11^b % of control | 54 | 2 | 2 | 97 ± 0 % of control | 102 ± 1 % of control | 2 | level of GlcCer, estimated visually (TLC) (MDCK cells [2]; 0.5 μM): greatly lowered; ceramide concentration, TLC densitometry, compared with BML-130 (MDCK cells [3]; various concentrations): virtually identical
2 | CCCCCCCCCCCCCCCC(=O)NC(CN1CCCC1)C(O)c1ccccc1 (racemic) [BML-130] | 2 | 0.94 nmol/mg protein and 0.87 nmol/mg protein | 4.73 nmol/mg protein and 5.65 nmol/mg protein | 5.41 nmol/mg protein and 3.34 nmol/mg protein | 11.9 nmol/mg protein and 8.71 nmol/mg protein | 87 ± 14 % of control | 39 ± 18^b % of control | 61 | 2 | 2 | 108 ± 10 % of control | 106 ± 29 % of control | 3 | level of GlcCer, estimated visually (TLC) (MDCK cells [2]; 0.3 μM): greatly lowered; ceramide concentration, TLC densitometry (MDCK cells [3]; 0.5 μM): 1.0 nmol/mg protein; ceramide concentration, TLC densitometry (MDCK cells [3]; 1 μM): 1.1 nmol/mg protein; ceramide concentration, TLC densitometry (MDCK cells [3]; 2 μM): 1.5 nmol/mg protein; ceramide concentration, TLC densitometry (MDCK cells [3]; 4 μM): 3.3 nmol/mg protein; growth, % of control growth ([4]; 2 μM inhibitor): 93%; growth, % of control growth ([4]; 3 μM inhibitor): 5%
